Experimental data taken from patent publication US20250250239A1, “SOLID STATE FORMS OF MAVACAMTEN AND PROCESS FOR PREPARATION THEREOF” (Assia Chemical Industries Ltd., priority 2022, published 2025).
“Also recorded” adds a separate entry of the source.

How the values were obtained:
Format in all cases: physicochemical
[1] = Stability to compression (pressure of 1 ton, XRPD); details: Pressure (1 tons), XRPD after 2 minutes
Procedure: (§1) Sample, after being powdered in a mortar and pestle, is applied directly on a silicon plate holder. The X-ray powder diffraction pattern was measured with Philips X'Pert PRO X-ray powder diffractometer, equipped with Cu irradiation source=1.54184 Å (Ångstrom), X'Celerator (2.022° 2θ) detector. Scanning parameters: angle range: 3-40 deg., step size 0.0167, time per step 37 s, continuous scan. The described peak positions were determined using silicon powder as an internal standard.
A sample of Mavacamten Form 7 was subjected to a pressure of 1 ton (Atlas® Autopress hydraulic press, set to 1 ton). XRPD analysis was performed on the sample after 2 minutes.

[2] = Grinding experiments (strong grinding and solvent drop grinding, XRPD); details: for XRPD analysis results: 2 minutes
Procedure: as §1
Samples of Mavacamten Form 7 were subjected to strong grinding, and to solvent drop grinding in isopropanol, ethanol, ethyl acetate, acetone and water. Grinding was carried out on the samples alone, or in the presence of a solvent. In these experiments, about 20 mg of the sample is placed in a mortar and ground with a pestle for 2 minutes. The solvent, when used, as added to the crystalline material before grinding, in a volume of 10 microliters.

[3] = Storage stability at different relative humidities (XRPD analysis); details: high and low relative humidity, ambient temperature
Procedure: as §1
(§2) Samples of Mavacamten Form 7 were subjected to conditions of different relative humidities at ambient temperature; TGA weight loss analysis was performed on the samples after 7 days, XRPD analysis was performed after 30 days.

[4] = TGA weight loss after storage at different relative humidities (hygroscopicity); details: for TGA weight loss after 7 days (up to 190° C.): ambient temperature
Procedure: as §2

[5] = Thermal stability (heating, XRPD); details: Heating 100° C., 30 minutes
Procedure: as §1
A sample of Mavacamten Form 7 was subjected to heating up to 100° C. for 30 minutes.

[6] = Sauna experiments (exposure to solvent vapors, XRPD)
Procedure: as §1
Samples of Mavacamten Form 7 (about 20-30 mg) were exposed for 7 days to vapors of different solvents in a sealed chamber.

[7] = Stability experiments, all tested stress conditions (summary); details: strong grinding, pressure of 1 ton, high humidity (up to 100% RH for 30 days), high temperature (up to 100° C.)
From the text: Example 2: Stability Experiments

Structure (SMILES): CC(C)n1c(=O)cc(N[C@@H](C)c2ccccc2)[nH]c1=O [Mavacamten Form 7, 6-{[(1S)-1-phenylethyl]amino}-3-(propan-2-yl)-1,2,3,4-tetrahydropyrimidine-2,4-dion]
- XRPD analysis results [1]: No polymorphic conversion
- XRPD analysis results ([2]; Solvent-drop grinding (acetone)): No polymorphic conversion
- XRPD analysis results ([2]; Solvent-drop grinding (ethanol)): No polymorphic conversion
- XRPD analysis results ([2]; Solvent-drop grinding (ethyl-acetate)): No polymorphic conversion
- XRPD analysis results ([2]; Solvent-drop grinding (isopropanol)): No polymorphic conversion
- XRPD analysis results ([2]; Solvent-drop grinding (water)): No polymorphic conversion
- XRPD analysis results ([2]; Strong grinding): No polymorphic conversion
- XRPD analysis after the grinding experiment ([2]; strong grinding and solvent drop grinding in isopropanol, ethanol, ethyl acetate, acetone and water): no change in the starting material
- Stability at relative humidity conditions [3]: stable at high and low relative humidity conditions
- Hygroscopicity ([4]; as confirmed by TGA, different relative humidities): non-hygroscopic
- TGA weight loss after 7 days (up to 190° C.) ([4]; relative humidity 20%): 0.7%
- TGA weight loss after 7 days (up to 190° C.) ([4]; relative humidity 40%): 0.6%
- TGA weight loss after 7 days (up to 190° C.) ([4]; relative humidity 60%): 0.8%
- TGA weight loss after 7 days (up to 190° C.) ([4]; relative humidity 80%): 0.5%
- TGA weight loss after 7 days (up to 190° C.) ([4]; relative humidity 100%): 1%
- Result (XRPD analysis) [5]: no change in the starting material; also recorded: No polymorphic conversion
- XRPD analysis results ([6]; Sauna (RT/7 days) (ethanol)): No polymorphic conversion
- XRPD analysis results ([6]; Sauna (RT/7 days) (ethyl acetate)): No polymorphic conversion
- XRPD analysis results ([6]; Sauna (RT/7 days) (isopropanol)): No polymorphic conversion
- XRPD analysis results ([6]; Sauna (RT/7 days) (water)): No polymorphic conversion
- Stability under tested stress conditions [7]: stable under all tested stress conditions
